Earlier results on one compound are cited in patent publication US20140276034A1, “Apparatus Detection of Circulatory Anomalies” (Cardiox Corporation, priority 2013, published 2014).

The conditions of the data set: manufacturers specified guideline; cited from earlier work.

In the case of `CC1(C)C(=CC=CC=CC=CC2=[N+](CCCCS(=O)(=O)[O-])c3ccc4ccccc4c3C2(C)C)N(CCCCS(=O)(=O)[O-])c2ccc3ccccc3c21.[Na+]` [ICG, 1H-benz(e)indolium, 2-[7-[1,3-dihydro-1,1-dimethyl-3-(4-sulfobutyl)-2H-benz[e]indo-2-ylidene]-1,3,5-heptatrienyl]-1,1-dimethyl-3-(4-sulfobutyl)-hydroxide, inner salt, sodium], the “maximum ICG dose per day” value is listed as 2 milligrams per kilogram of body weight.
